Assays:
Type in all cases: cell-based, human
LMR20 cells = test: Proliferation of MDV3100-resistant LMR20 cells (MTT; with R1881 or DHT); details: 5 days
Procedure: LMR20 cells were plated at 1,500 cells per well in phenol red-free medium with charcoal-stripped fetal bovine serum (CSS), to remove any androgens from the medium (Life Technologies). […] The synthetic androgen agonist, R1881, (Takeda, A. N. et al., Mol. Pharmacol. 2007. 71: 473-82) was added on day 1 at 1 nM dose to a set of cells also treated with each of the antisense oligonucleotides. DHT was added on day 1 at a dose of 10 nM to another set of cells also treated with each of the antisense oligonucleotides. […] After a treatment period of 5 days, the proliferative ability of the cancer cells was measured by the standard MTT assay. Results are presented in Table 42 as percent inhibition of proliferation, relative to non-treated cells.

AR mRNA [1] = test: AR mRNA levels in LMR20 cells (with/without DHT or R1881); details: with or without DHT/R1881
Procedure: LMR20 cells were plated at 1,500 cells per well in phenol red-free medium with CSS.

[2] = test system: prostate-specific antigen (PSA) mRNA; test: PSA mRNA levels in LMR20 cells; details: with or without DHT/R1881
Procedure: LMR20 cells were plated at 1,500 cells per well in phenol red-free medium with CSS. […] Results are presented in Tables 43-45 as mRNA levels expressed as a percentage of the baseline values. mRNA levels may be lowered or increased after treatment.

PSA mRNA [3] = test: PSA expression in LNCaP cells (complete, CSS+DHT medium); details: for Percent inhibition of PSA expression in LNCaP cells cultured in CSS + DHT medium: CSS + DHT (1 nM) medium, 48 hrs; for Percent inhibition of PSA expression in LNCaP cells cultured in complete medium: 48 hours
Procedure: Cells were plated at 1,000 cells per well. […] ISIS 549148 was included as a negative control. […] After an incubation period of 48 hours, RNA levels of AR, PSA and TMPRSS2 were measured.
Cells were plated at 2,000 cells per well and cultured in phenol red-free RPMI supplemented with 5% charcoal stripped serum (Gibco) media for 16 hours. […] ISIS 549148 was included as a negative control. […] After an incubation period of 4 hrs, DHT was added to the medium to a final concentration of 1 nM as indicated. RNAs were collected 48 hrs later and levels of AR, PSA and TMPRSS2 were measured. In the absence of DHT, AR expression in LNCaP cells was 95%, PSA expression was 7% and TMPRSS2 expression was 24% compared to the untreated control.

AR mRNA [4] = test: AR RNA expression in C4-2B cells (complete, CSS+DHT medium; Example 30); details: 48 hrs
Procedure: Cells were plated at 1,000 cells per well. […] ISIS 549148 was included as a negative control. […] After an incubation period of 48 hrs, RNA levels of AR, PSA and TMPRSS2 were measured.
Cells were plated at 2,000 cells per well and cultured in CSS media with 1 nM DHT. […] ISIS 549148 was included as a negative control. […] After an incubation period of 48 hrs, RNA levels of AR, PSA and TMPRSS2 were measured. In the absence of DHT, AR expression in C4-2 cells was 188%, PSA expression was 43% and TMPRSS2 expression was 27% compared to the untreated control.

PSA mRNA [5] = test: PSA expression in VCaP cells; details: RNAiMax, 48 hrs
Procedure: (§1) Cells were plated at 10,000 cells per well. […] After an incubation period of 48 hrs, RNA levels of full length AR, the V7 variant, PSA and TMPRSS2 were measured.
(§2) After an incubation period of 48 hrs, RNA levels of full length AR, the V7 variant, PSA and TMPRSS2 were measured. The data is presented in Tables 108 expressed as percent expression of gene levels compared to the untreated control.
(§3) Cells were plated at 15,000 cells per well and cultured in CSS media for 16 hours. […] After 4 hrs, 1 nM DHT was added. […] After an incubation period of 48 hrs, RNA levels of AR, PSA and TMPRSS2 were measured.

TMPRSS2 mRNA = test: TMPRSS2 expression in VCaP cells; details: RNAiMax, 48 hrs
Procedure: as §1, §2, §3

Sequence: TGATTTAATGGTTGCA [ISIS 569236] (cEt/MOE gapmer chemistry, further chemistry not given here) [targets intron 1]
- Percent inhibition of LMR20 cell proliferation (LMR20 cells; CSS + DHT, ASO 0.04 μM): 0%
- Percent inhibition of LMR20 cell proliferation (LMR20 cells; CSS + DHT, ASO 0.20 μM): 10%
- Percent inhibition of LMR20 cell proliferation (LMR20 cells; CSS + DHT, ASO 1.0 μM): 32%
- Percent inhibition of LMR20 cell proliferation (LMR20 cells; CSS + DHT, ASO 5.0 μM): 57%
- Percent inhibition of LMR20 cell proliferation (LMR20 cells; CSS + R1881, ASO 0.04 μM): 0%
- Percent inhibition of LMR20 cell proliferation (LMR20 cells; CSS + R1881, ASO 0.20 μM): 2%
- Percent inhibition of LMR20 cell proliferation (LMR20 cells; CSS + R1881, ASO 1.0 μM): 34%
- Percent inhibition of LMR20 cell proliferation (LMR20 cells; CSS + R1881, ASO 5.0 μM): 61%
- Percent inhibition of LMR20 cell proliferation (LMR20 cells; CSS, ASO 0.04 μM): 0%
- Percent inhibition of LMR20 cell proliferation (LMR20 cells; CSS, ASO 0.20 μM): 10%
- Percent inhibition of LMR20 cell proliferation (LMR20 cells; CSS, ASO 1.0 μM): 0%
- Percent inhibition of LMR20 cell proliferation (LMR20 cells; CSS, ASO 5.0 μM): 12%
- LMR20 cell proliferation (LMR20 cells; in the presence of R1881 or DHT, 0.04-5.0 μM): significantly inhibited MDV3100-resistant prostate cancer cell proliferation in a dose dependent manner more extensively than ISIS 554221
- AR mRNA levels in LMR20 cells (AR mRNA [1]): reduced AR mRNA levels in LMR20 cells, treated with or without either AR agonist, in a dose dependent manner relative to the baseline
- PSA mRNA levels in LMR20 cells [2]: reduced PSA levels and TMPRSS2 more extensively than the LNA gapmer ISIS 554221 or MDV3100
- Percent inhibition of PSA expression in LNCaP cells cultured in CSS + DHT medium (PSA mRNA [3]; 0.04 μM): 4%
- Percent inhibition of PSA expression in LNCaP cells cultured in CSS + DHT medium (PSA mRNA [3]; 0.2 μM): 11%
- Percent inhibition of PSA expression in LNCaP cells cultured in CSS + DHT medium (PSA mRNA [3]; 1 μM): 45%
- Percent inhibition of PSA expression in LNCaP cells cultured in CSS + DHT medium (PSA mRNA [3]; 5.0 μM): 59%
- Percent inhibition of PSA expression in LNCaP cells cultured in complete medium (PSA mRNA [3]; 0.04 μM): 0%
- Percent inhibition of PSA expression in LNCaP cells cultured in complete medium (PSA mRNA [3]; 0.2 μM): 19%
- Percent inhibition of PSA expression in LNCaP cells cultured in complete medium (PSA mRNA [3]; 1 μM): 63%
- Percent inhibition of PSA expression in LNCaP cells cultured in complete medium (PSA mRNA [3]; 5.0 μM): 81%
- Percent expression of AR (AR mRNA [4]; CSS + DHT medium, 0.04 μM): 67%
- Percent expression of AR (AR mRNA [4]; CSS + DHT medium, 0.2 μM): 49%
- Percent expression of AR (AR mRNA [4]; CSS + DHT medium, 1 μM): 24%
- Percent expression of AR (AR mRNA [4]; CSS + DHT medium, 5.0 μM): 19%
- Percent expression of AR (AR mRNA [4]; complete medium, 0.04 μM): 61%
- Percent expression of AR (AR mRNA [4]; complete medium, 0.2 μM): 23%
- Percent expression of AR (AR mRNA [4]; complete medium, 1 μM): 20%
- Percent expression of AR (AR mRNA [4]; complete medium, 5.0 μM): 16%
- Percent inhibition of PSA expression (PSA mRNA [5]; CSS + DHT medium, 1.34 nM): 8%
- Percent inhibition of PSA expression (PSA mRNA [5]; CSS + DHT medium, 4.0 nM): 25%
- Percent inhibition of PSA expression (PSA mRNA [5]; CSS + DHT medium, 13.4 nM): 62%
- Percent inhibition of PSA expression (PSA mRNA [5]; CSS + DHT medium, 40 nM): 74%
- Percent inhibition of PSA expression (PSA mRNA [5]; complete medium, 1.34 nM): 7%
- Percent inhibition of PSA expression (PSA mRNA [5]; complete medium, 4.0 nM): 19%
- Percent inhibition of PSA expression (PSA mRNA [5]; complete medium, 13.4 nM): 40%
- Percent inhibition of PSA expression (PSA mRNA [5]; complete medium, 40 nM): 52%
- Percent inhibition of TMPRSS2 expression (TMPRSS2 mRNA; CSS + DHT medium, 1.34 nM): 6%
- Percent inhibition of TMPRSS2 expression (TMPRSS2 mRNA; CSS + DHT medium, 4.0 nM): 19%
- Percent inhibition of TMPRSS2 expression (TMPRSS2 mRNA; CSS + DHT medium, 13.4 nM): 40%
- Percent inhibition of TMPRSS2 expression (TMPRSS2 mRNA; CSS + DHT medium, 40 nM): 54%
- Percent inhibition of TMPRSS2 expression (TMPRSS2 mRNA; complete medium, 1.34 nM): 0%
- Percent inhibition of TMPRSS2 expression (TMPRSS2 mRNA; complete medium, 4.0 nM): 0%
- Percent inhibition of TMPRSS2 expression (TMPRSS2 mRNA; complete medium, 13.4 nM): 0%
- Percent inhibition of TMPRSS2 expression (TMPRSS2 mRNA; complete medium, 40 nM): 36%

Source: patent publication USRE48461E1, “Modulation of androgen receptor expression” (Ionis Pharmaceuticals, Inc., priority 2012, dated 2021)
